Experimental data from patent US20250114345A1, “COMPOUNDS AND COMPOSITIONS AS CBP/P300 DEGRADERS AND USES THEREOF” (Oncopia Therapeutics, Inc. d/b/a/ SK Life Science Labs, priority 2023, published 2025).

What was measured:
[1] = target: T1, p300 (Homo sapiens, UniProt Q09472); assay: P300 degradation, HiBit technology in A549 P300 HiBit cells (2 h); assay type: cell-based; conditions: 2 hrs post treatment; for Dmax: A549, A549 P300 HiBit cells; for DC50: A549 P300 HiBit cells
T1 construct: host or cells: A549 P300 HiBit cells
T1 sequence (Q09472 whole entry): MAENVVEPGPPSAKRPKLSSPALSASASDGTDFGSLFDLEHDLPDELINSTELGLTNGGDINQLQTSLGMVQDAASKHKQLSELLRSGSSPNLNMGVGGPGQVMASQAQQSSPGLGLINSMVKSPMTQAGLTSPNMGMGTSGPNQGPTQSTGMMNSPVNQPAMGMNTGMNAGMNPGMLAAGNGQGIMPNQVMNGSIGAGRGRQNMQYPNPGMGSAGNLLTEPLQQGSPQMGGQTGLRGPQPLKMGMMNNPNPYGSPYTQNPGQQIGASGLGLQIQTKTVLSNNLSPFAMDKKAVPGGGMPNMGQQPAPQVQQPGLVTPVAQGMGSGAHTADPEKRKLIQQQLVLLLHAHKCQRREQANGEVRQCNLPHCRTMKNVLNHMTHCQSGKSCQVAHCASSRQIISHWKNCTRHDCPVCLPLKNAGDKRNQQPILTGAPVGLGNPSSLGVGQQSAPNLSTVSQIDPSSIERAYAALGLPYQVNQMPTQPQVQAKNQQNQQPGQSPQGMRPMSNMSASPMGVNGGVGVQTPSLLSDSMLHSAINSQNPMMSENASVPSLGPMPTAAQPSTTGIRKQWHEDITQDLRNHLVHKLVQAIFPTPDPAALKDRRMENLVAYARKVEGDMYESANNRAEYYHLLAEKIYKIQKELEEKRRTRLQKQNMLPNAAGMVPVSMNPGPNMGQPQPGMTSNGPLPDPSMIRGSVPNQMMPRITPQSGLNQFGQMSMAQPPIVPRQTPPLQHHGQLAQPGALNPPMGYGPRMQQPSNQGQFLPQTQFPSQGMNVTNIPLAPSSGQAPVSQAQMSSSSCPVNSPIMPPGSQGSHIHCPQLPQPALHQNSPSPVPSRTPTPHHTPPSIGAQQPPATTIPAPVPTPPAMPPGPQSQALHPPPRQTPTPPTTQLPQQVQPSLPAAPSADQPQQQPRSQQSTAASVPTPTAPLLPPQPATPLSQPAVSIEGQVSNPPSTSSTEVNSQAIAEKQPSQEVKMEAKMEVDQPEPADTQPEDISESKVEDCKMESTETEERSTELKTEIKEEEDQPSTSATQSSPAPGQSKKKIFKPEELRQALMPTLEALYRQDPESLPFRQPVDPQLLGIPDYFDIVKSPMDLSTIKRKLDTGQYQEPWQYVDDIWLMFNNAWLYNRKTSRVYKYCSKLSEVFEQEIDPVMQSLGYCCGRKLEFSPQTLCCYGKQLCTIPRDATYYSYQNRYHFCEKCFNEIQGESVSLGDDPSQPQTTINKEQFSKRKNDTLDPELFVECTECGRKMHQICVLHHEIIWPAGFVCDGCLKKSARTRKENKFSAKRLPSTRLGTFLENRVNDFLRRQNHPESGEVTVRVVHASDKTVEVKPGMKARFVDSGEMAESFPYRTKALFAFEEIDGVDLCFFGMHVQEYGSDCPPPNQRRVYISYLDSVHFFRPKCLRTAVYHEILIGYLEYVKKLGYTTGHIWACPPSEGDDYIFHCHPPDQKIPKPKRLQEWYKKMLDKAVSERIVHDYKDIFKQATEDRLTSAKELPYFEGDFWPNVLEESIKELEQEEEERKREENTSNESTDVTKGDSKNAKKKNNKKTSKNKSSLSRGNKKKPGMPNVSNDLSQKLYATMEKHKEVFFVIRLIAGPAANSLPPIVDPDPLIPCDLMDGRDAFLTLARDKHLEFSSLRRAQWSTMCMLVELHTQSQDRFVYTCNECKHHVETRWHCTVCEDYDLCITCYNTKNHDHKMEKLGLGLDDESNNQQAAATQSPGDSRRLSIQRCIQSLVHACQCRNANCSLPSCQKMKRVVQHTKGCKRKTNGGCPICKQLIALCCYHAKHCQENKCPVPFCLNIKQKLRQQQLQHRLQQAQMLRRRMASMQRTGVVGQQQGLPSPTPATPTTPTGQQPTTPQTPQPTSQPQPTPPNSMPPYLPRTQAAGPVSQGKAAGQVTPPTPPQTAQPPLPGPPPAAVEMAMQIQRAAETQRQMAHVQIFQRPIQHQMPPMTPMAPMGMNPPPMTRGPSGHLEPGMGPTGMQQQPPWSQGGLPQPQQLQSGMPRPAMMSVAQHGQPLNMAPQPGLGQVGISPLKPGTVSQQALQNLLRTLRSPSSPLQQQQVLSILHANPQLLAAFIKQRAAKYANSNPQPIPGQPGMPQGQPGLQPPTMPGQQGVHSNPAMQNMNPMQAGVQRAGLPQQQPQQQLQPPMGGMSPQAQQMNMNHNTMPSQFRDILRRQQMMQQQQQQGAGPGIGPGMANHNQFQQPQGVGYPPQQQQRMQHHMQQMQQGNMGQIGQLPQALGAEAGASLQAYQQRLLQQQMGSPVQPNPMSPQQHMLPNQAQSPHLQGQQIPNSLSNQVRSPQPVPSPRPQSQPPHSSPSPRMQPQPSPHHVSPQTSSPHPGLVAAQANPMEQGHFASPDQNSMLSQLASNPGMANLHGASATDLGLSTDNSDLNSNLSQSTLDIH
In short: (§1)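 Degradation potency and Dmax came from luminescence after 10 min room-temperature lysis with HiBit detection buffer. Beforehand, HiBit-tagged A549 lines received serial compound dilutions (10 mM DMSO stocks) at 37 °C, 5% CO2. CBP cells were read at 24 h, p300 cells at 2 h.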

[2] = target: T2, CBP (Homo sapiens, UniProt Q92793); assay: CBP degradation, HiBit technology in A549 CBP HiBit cells (24 h); assay type: cell-based; conditions: 24 hrs post treatment
T2 construct: host or cells: A549 CBP HiBit cells
T2 sequence (Q92793 whole entry): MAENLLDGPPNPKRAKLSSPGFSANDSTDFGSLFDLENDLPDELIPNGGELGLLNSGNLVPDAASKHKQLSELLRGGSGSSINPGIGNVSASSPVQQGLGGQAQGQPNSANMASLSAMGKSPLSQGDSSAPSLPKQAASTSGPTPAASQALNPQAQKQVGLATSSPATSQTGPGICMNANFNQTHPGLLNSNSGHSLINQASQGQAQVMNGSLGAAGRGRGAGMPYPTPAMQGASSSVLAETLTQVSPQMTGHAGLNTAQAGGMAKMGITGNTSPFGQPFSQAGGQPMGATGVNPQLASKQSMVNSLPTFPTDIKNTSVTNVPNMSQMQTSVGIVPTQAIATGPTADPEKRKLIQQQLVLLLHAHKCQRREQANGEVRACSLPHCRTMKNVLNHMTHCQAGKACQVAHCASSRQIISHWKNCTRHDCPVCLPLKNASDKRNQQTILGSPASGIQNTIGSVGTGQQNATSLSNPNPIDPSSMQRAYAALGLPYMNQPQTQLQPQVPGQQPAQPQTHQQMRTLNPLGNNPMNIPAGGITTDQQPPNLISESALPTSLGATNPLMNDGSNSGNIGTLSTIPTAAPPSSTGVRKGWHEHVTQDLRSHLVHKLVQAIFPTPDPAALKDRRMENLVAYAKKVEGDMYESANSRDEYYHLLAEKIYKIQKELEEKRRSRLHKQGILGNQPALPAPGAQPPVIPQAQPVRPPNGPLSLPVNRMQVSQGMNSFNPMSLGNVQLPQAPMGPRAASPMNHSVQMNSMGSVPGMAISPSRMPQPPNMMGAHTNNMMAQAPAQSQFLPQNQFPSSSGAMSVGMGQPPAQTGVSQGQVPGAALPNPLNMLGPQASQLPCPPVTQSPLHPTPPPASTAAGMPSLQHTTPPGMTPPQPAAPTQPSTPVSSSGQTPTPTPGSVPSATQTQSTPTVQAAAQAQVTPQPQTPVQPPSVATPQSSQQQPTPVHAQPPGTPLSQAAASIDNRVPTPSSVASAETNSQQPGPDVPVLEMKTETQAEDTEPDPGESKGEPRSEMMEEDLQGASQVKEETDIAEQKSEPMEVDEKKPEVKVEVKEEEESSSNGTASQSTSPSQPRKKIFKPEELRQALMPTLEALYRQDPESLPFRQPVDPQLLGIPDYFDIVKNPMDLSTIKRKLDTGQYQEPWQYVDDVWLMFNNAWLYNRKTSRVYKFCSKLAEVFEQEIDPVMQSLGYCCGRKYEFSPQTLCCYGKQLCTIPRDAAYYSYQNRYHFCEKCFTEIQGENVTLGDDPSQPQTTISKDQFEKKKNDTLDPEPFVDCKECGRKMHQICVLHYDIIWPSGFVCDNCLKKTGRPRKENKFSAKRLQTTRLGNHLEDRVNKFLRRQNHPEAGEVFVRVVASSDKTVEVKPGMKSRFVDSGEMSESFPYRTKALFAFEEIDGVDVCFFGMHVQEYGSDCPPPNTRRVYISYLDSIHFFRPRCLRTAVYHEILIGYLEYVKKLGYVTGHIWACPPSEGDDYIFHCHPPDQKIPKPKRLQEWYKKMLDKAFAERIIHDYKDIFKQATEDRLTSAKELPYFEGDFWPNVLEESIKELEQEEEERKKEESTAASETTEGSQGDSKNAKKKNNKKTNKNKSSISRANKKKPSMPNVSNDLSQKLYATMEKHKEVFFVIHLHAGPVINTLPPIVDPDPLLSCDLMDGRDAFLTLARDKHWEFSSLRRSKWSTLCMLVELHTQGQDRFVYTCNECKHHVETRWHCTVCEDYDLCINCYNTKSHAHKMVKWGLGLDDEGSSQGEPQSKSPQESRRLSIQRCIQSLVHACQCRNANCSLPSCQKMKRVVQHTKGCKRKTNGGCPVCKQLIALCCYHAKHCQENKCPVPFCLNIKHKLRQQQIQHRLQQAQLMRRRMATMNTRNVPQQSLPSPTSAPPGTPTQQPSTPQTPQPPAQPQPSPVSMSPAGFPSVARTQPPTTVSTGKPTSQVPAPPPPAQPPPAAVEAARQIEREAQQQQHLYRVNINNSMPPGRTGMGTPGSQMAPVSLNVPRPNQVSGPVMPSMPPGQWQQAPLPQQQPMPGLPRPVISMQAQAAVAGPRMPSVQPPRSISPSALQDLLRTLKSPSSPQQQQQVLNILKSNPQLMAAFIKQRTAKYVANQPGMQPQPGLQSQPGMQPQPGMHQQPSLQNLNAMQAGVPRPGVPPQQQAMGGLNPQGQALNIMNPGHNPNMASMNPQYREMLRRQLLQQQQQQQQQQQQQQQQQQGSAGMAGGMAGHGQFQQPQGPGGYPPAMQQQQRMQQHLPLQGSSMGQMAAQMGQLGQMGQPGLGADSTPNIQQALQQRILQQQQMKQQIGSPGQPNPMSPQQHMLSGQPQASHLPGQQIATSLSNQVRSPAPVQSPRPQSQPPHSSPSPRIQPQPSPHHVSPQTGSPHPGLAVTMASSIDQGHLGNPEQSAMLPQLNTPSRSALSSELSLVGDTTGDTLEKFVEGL
In short: as §1

| Dmax [1] | DC50 [1] | DC50 [2] | Dmax [2] | SMILES |
| --- | --- | --- | --- | --- |
| > 80% | 10 to 99 nM | > 1000 nM | < 20% | Cc1oc2ccc(C#CCNC(=O)c3ccc(-c4cc5cccc(-c6cc(C(C)C)c7c(c6)n(C)c(=O)n7C)c5cn4)cn3)cc2c1C1CCC(=O)NC1=O (stereo not drawn) [Example A248, N-(3-(3-(2,6-dioxo-piperidin-3-yl)-2-methylbenzofuran-5-yl)prop-2-yn-1-yl)-5-(8-(7-isopropyl-1,3-dimethyl-2-oxo-2,3-dihydro-1H-benzo [d]imidazol-5-yl)isoquinolin-3-yl) picolinamide] |
| > 80% | 1 to 9.9 nM | > 1000 nM | < 20% | CC(C)c1cc(-c2cccc3cc(-c4ccc(C(=O)NCC#Cc5cc(F)c6occ(C7CCC(=O)NC7=O)c6c5)nc4)ncc23)cc2c1n(C)c(=O)n2C (stereo not drawn) [Example A254, N-(3-(3-(2,6-dioxo-piperidin-3-yl)-7-fluorobenzofuran-5-yl)prop-2-yn-1-yl)-5-(8-(7-isopropyl-1,3-dimethyl-2-oxo-2,3-dihydro-1H-benzo [d]imidazol-5-yl)isoquinolin-3-yl)picolinamide] |
| > 80% | 1 to 9.9 nM | > 1000 nM | < 20% | Cn1c(=O)n(C)c2cc(C3=CC(C)(C)Oc4cc(-c5ccc(C(=O)NCC#Cc6cc7c(C8CCC(=O)NC8=O)cccc7o6)nc5)ncc43)ccc21 (stereo not drawn) [Example A259, 5-(4-(1,3-dimethyl-2-oxo-2,3-dihydro-1H-benzo[d]imidazol-5-yl)-2,2-dimethyl-2H-pyrano[3,2-c]pyridin-7-yl)-N-(3-(4-(2,6-dioxopiperidin-3-yl)benzofuran-2-yl)prop-2-yn-1-yl)picolinamide] |
| > 80% | < 1 nM | > 1000 nM | < 20% | CCn1c(=O)n(C)c2c(N3CCOCC3)nc(-c3cccc4cc(-c5ccc(C(=O)NCC#Cc6cc7c(C8CCC(=O)NC8=O)cccc7o6)nc5)ncc34)cc21 (stereo not drawn) [Example A260, N-(3-(4-(2,6-dioxo-piperidin-3-yl)benzofuran-2-yl)prop-2-yn-1-yl)-5-(8-(1-ethyl-3-methyl-4-morpholino-2-oxo-2,3-dihydro-1H-imidazo[4,5-c]pyridin-6-yl)isoquinolin-3-yl)picolinamide] |
| > 80% | 1 to 9.9 nM | > 1000 nM | < 20% | Cn1c(=O)n(C)c2cc(C3=CC(C)(C)Oc4cc(-c5ccc(C(=O)NCC#Cc6ccc7occ(C8CCC(=O)NC8=O)c7c6)nc5)ncc43)ccc21 (stereo not drawn) [Example A263, 5-(4-(1,3-dimethyl-2-oxo-2,3-dihydro-1H-benzo[d]imidazol-5-yl)-2,2-dimethyl-2H-pyrano[3,2-c]pyridin-7-yl)-N-(3-(3-(2,6-dioxopiperidin-3-yl)benzofuran-5-yl)prop-2-yn-1-yl)picolinamide] |
| 20 to 39% | 1 to 9.9 nM | > 1000 nM | < 20% | CCc1cc(-c2cccc3cc(-c4ccc(C(=O)NCC#Cc5cc(NC6CCC(=O)NC6=O)nn5C)nc4)ncc23)c2cc(C)c(=O)n(C)c2c1 (stereo not drawn) [Example B7, N-(3-(3-((2,6-Dioxopiperidin-3-yl)amino)-1-methyl-1H-pyrazol-5-yl)prop-2-yn-1-yl)-5-(8-(7-ethyl-1,3-dimethyl-2-oxo-1,2-dihydroquinolin-5-yl)isoquinolin-3-yl)picolinamide] |
| > 80% | 1 to 9.9 nM | 10 to 99 nM | 40 to 59% | CCc1cc(-c2cccc3cc(-c4ccc(C(=O)NCC#Cc5ccc6c(c5)n(C5CCC(=O)NC5=O)c(=O)n6C)nc4)ncc23)c2cc(C)c(=O)n(C)c2c1 (stereo not drawn) [Example B8, N-(3-(3-(2,6-Dioxopiperidin-3-yl)-1-methyl-2-oxo-2,3-dihydro-1H-benzo[d]imidazol-5-yl)prop-2-yn-1-yl)-5-(8-(7-ethyl-1,3-dimethyl-2-oxo-1,2-dihydroquinolin-5-yl)isoquinolin-3-yl)picolinamide] |

The remaining lines, values behind:

| SMILES | Dmax [1] | DC50 [1] | DC50 [2] | Dmax [2] |
| --- | --- | --- | --- | --- |
| Cc1cc(-c2ncc3c(n2)OCCN3c2ccc3c(c2)n(C)c(=O)n3C)cnc1C(=O)NCC#Cc1cc2ccnc(C3CCC(=O)NC3=O)c2o1 (stereo not drawn) [Example A251, 5-(5-(1,3-dimethyl-2-oxo-2,3-dihydro-1H-benzo[d]imidazol-5-yl)-6,7-dihydro-5H-pyrimido[4,5-b][1,4]oxazin-2-yl)-N-(3-(7-(2,6-dioxopiperidin-3-yl)furo[2,3-c]pyridin-2-yl)prop-2-yn-1-yl)-3-methylpicolinamide] | 60 to 79% | 10 to 99 nM | > 1000 nM | < 20% |
| Cn1c(=O)n(C)c2cc(-c3cccc4cc(-c5ccc(C(=O)NCC#Cc6ccc7cnn(C8CCC(=O)NC8=O)c7c6)nc5)ncc34)ccc21 (stereo not drawn) [Example A255, 5-(8-(1,3-dimethyl-2-oxo-2,3-dihydro-1H-benzo[d]imidazol-5-yl)isoquinolin-3-yl)-N-(3-(1-(2,6-dioxo-piperidin-3-yl)-1H-indazol-6-yl)prop-2-yn-1-yl)picolinamide] | > 80% | 1 to 9.9 nM | > 1000 nM | < 20% |
| Cn1c(=O)n(C)c2c(N3CCC(C)(O)CC3)nc(-c3cccc4cc(-c5ccc(C(=O)NCC#Cc6cc7c(C8CCC(=O)NC8=O)cccc7o6)nc5)ncc34)cc21 (stereo not drawn) [Example A258, N-(3-(4-(2,6-dioxo-piperidin-3-yl)benzofuran-2-yl)prop-2-yn-1-yl)-5-(8-(4-(4-hydroxy-4-methylpiperidin-1-yl)-1,3-dimethyl-2-oxo-2,3-dihydro-1H-imidazo[4,5-c]pyridin-6-yl)isoquinolin-3-yl)picolinamide] | > 80% | < 1 nM | > 1000 nM | < 20% |
| Cn1c(=O)n(C)c2c(C3CC3)cc(-c3cccc4cc(-c5ccc(C(=O)NCC#Cc6cc7c(C8CCC(=O)NC8=O)cccc7o6)nc5)ncc34)cc21 (stereo not drawn) [Example A261, 5-(8-(7-cyclopropyl-1,3-dimethyl-2-oxo-2,3-dihydro-1H-benzo[d]imidazol-5-yl)isoquinolin-3-yl)-N-(3-(4-(2,6-dioxopiperidin-3-yl)benzofuran-2-yl)prop-2-yn-1-yl)picolinamide] | > 80% | 1 to 9.9 nM | > 1000 nM | < 20% |
| Cc1cc(-c2cc3cccc(-c4cc(C(C)C)c5c(c4)n(C)c(=O)n5C)c3cn2)cnc1C(=O)NCC#Cc1ccc2c(c1)c(C1CCC(=O)NC1=O)nn2C (stereo not drawn) [Example A269, N-(3-(3-(2,6-dioxopiperidin-3-yl)-1-methyl-1H-indazol-5-yl)prop-2-yn-1-yl)-5-(8-(7-isopropyl-1,3-dimethyl-2-oxo-2,3-dihydro-1H-benzo[d]imidazol-5-yl)iso-quinolin-3-yl)-3-methylpicolinamide] | > 80% | 1 to 9.9 nM | 10 to 99 nM | > 80% |
| CC(C)c1cc(N2CCN(C)c3cc(-c4ccc(C(=O)NCC#Cc5cccc(NC6CCC(=O)NC6=O)c5)nc4)ncc32)cc2c1n(C)c(=O)n2C (stereo not drawn) [Example A270, N-(3-(3-((2,6-dioxopiperidin-3-yl)amino)phenyl)prop-2-yn-1-yl)-5-(4-(7-isopropyl-1,3-dimethyl-2-oxo-2,3-dihydro-1H-benzo[d]imidazol-5-yl)-1-methyl-1,2,3,4-tetrahydro-pyrido[3,4-b]pyrazin-7-yl)picolinamide] | > 80% | < 1 nM | 1 to 9.9 nM | 60 to 79% |
| Cn1c(=O)n(C)c2c(N3CCC(C)(O)CC3)cc(-c3cccc4cc(-c5ccc(C(=O)NCC#Cc6cccc(NC7CCC(=O)NC7=O)c6)nc5)ncc34)cc21 (stereo not drawn) [Example A271, N-(3-(3-((2,6-dioxopiperidin-3-yl)amino)phenyl)prop-2-yn-1-yl)-5-(8-(7-(4-hydroxy-4-methylpiperidin-1-yl)-1,3-dimethyl-2-oxo-2,3-dihydro-1H-benzo[d]imidazol-5-yl)isoquinolin-3-yl)picolinamide] | > 80% | < 1 nM | 1 to 9.9 nM | 60 to 79% |
| CCc1cc(-c2cccc3cc(-c4ccc(C(=O)NCC#Cc5ccc6ncn(C7CCC(=O)NC7=O)c6c5)nc4)ncc23)c2cc(C)c(=O)n(C)c2c1 (stereo not drawn) [Example B2, N-(3-(1-(2,6-Dioxopiperidin-3-yl)-1H-benzo[d]imidazol-6-yl)prop-2-yn-1-yl)-5-(8-(7-ethyl-1,3-dimethyl-2-oxo-1,2-dihydroquinolin-5-yl)isoquinolin-3-yl)picolinamide] | 60 to 79% | 1 to 9.9 nM | > 1000 nM | < 20% |
| CCc1cc(-c2cccc3cc(-c4ccc(C(=O)NCC#Cc5cccc(CC6CCC(=O)NC6=O)c5)nc4)ncc23)c2cc(C)c(=O)n(C)c2c1 (stereo not drawn) [Example B4, N-(3-(3-((2,6-Dioxopiperidin-3-yl)methyl)phenyl)prop-2-yn-1-yl)-5-(8-(7-ethyl-1,3-dimethyl-2-oxo-1,2-dihydroquinolin-5-yl)isoquinolin-3-yl)picolinamide] | 60 to 79% | 10 to 99 nM | 100 to 999 nM | 40 to 59% |
| CCc1cc(-c2cccc3cc(-c4ccc(C(=O)NCC#Cc5ccc6cnn(C7CCC(=O)NC7=O)c6c5)nc4)ncc23)c2cc(C)c(=O)n(C)c2c1 (stereo not drawn) [Example B5, N-(3-(1-(2,6-Dioxopiperidin-3-yl)-1H-indazol-6-yl)prop-2-yn-1-yl)-5-(8-(7-ethyl-1,3-dimethyl-2-oxo-1,2-dihydroquinolin-5-yl)isoquinolin-3-yl)picolinamide] | > 80% | 1 to 9.9 nM | > 1000 nM | < 20% |
| CN1Cc2c(-c3cccc4cc(-c5ccc(C(=O)NCC#Cc6ccc7cnn(C8CCC(=O)NC8=O)c7c6)nc5)ncc34)cc(C(C)(F)F)cc2N(C)C1=O (stereo not drawn) [Example B9, 5-(8-(7-(1,1-Difluoroethyl)-1,3-dimethyl-2-oxo-1,2,3,4-tetrahydroquinazolin-5-yl)isoquinolin-3-yl)-N-(3-(1-(2,6-dioxopiperidin-3-yl)-1H-indazol-6-yl)prop-2-yn-1-yl)picolinamide] | > 80% | 1 to 9.9 nM | 10 to 99 nM | 40 to 59% |
